ChEMBL document CHEMBL4507301 (2021)

Legend:
[1] = molecular target: Tyrosine-protein kinase HCK (Homo sapiens) (UniProt P08631); conditions: Compound concentration 1000.0 nM
[2] = molecular target: D(1B) dopamine receptor (Homo sapiens) (UniProt P21918); conditions: Compound concentration 10.0 uM
[3] = system: Hepatocyte growth factor receptor (Homo sapiens), P08581 [Y1235D]; conditions: Compound concentration 1000.0 nM
[4] = molecular target: Cyclin-dependent kinase 15 (Homo sapiens) (UniProt Q96Q40); conditions: Compound concentration 1000.0 nM
[5] = system: Epidermal growth factor receptor (Homo sapiens), P00533 [UNDEFINED MUTATION]; conditions: Compound concentration 1000.0 nM
[6] = molecular target: Casein kinase I isoform gamma-2 (Homo sapiens) (UniProt P78368); conditions: Compound concentration 1000.0 nM
[7] = molecular target: Tyrosine-protein kinase receptor UFO (Homo sapiens) (UniProt P30530); conditions: Compound concentration 1000.0 nM
Sequence of Tyrosine-protein kinase receptor UFO (Homo sapiens) (P30530 whole entry): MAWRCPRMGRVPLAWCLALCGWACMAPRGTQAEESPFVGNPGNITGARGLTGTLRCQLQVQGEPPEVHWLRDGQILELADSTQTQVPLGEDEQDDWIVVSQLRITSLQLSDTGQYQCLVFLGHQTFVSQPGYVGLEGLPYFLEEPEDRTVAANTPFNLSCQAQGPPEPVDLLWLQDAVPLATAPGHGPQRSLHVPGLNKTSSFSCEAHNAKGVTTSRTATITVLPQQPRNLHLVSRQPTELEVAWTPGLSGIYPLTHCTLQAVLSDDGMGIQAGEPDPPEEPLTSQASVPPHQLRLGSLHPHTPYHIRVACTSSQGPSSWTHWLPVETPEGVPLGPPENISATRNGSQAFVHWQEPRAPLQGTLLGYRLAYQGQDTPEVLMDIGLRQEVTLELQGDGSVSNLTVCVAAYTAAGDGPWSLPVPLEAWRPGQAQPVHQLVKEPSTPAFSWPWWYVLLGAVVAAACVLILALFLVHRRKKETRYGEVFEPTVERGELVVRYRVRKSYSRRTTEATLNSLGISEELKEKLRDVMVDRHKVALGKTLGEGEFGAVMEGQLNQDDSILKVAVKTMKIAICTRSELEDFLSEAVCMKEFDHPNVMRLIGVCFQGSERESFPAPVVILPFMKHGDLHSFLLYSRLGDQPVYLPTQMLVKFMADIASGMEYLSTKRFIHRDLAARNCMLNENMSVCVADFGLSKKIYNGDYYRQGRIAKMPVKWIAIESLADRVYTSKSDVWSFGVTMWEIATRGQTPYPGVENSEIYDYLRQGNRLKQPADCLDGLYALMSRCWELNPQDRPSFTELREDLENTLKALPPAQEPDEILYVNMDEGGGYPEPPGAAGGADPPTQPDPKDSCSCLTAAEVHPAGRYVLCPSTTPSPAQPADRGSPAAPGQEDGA

[8] = molecular target: Mitogen-activated protein kinase 10 (Homo sapiens) (UniProt P53779); conditions: Compound concentration 1000.0 nM
Sequence of Mitogen-activated protein kinase 10 (Homo sapiens) (P53779 whole entry): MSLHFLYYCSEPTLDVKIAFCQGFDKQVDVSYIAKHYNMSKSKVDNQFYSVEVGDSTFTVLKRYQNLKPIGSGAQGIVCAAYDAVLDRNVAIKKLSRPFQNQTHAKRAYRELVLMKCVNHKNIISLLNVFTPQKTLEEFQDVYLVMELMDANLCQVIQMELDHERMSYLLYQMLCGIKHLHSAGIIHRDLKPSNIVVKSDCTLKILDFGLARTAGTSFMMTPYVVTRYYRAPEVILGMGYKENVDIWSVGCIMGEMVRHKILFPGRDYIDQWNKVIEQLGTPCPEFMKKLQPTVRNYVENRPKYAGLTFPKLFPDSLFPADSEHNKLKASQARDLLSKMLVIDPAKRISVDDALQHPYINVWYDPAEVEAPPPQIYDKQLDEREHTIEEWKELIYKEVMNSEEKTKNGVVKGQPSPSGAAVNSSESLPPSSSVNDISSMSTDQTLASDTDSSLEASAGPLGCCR

[9] = molecular target: Ephrin type-A receptor 4 (Homo sapiens) (UniProt P54764); conditions: Compound concentration 1000.0 nM
[10] = molecular target: Ephrin type-A receptor 3 (Homo sapiens) (UniProt P29320); conditions: Compound concentration 1000.0 nM
[11] = molecular target: Calcium/calmodulin-dependent protein kinase type II subunit delta (Homo sapiens) (UniProt Q13557); conditions: Compound concentration 1000.0 nM
[12] = molecular target: Serine/threonine-protein kinase haspin (Homo sapiens) (UniProt Q8TF76); conditions: Compound concentration 1000.0 nM
[13] = molecular target: Leucine-rich repeat serine/threonine-protein kinase 2 (Homo sapiens) (UniProt Q5S007); conditions: Compound concentration 1000.0 nM
[14] = molecular target: Serine/threonine-protein kinase PLK4 (Homo sapiens) (UniProt O00444); conditions: Compound concentration 1000.0 nM
[15] = molecular target: Serine/threonine-protein kinase PLK2 (Homo sapiens) (UniProt Q9NYY3); conditions: Compound concentration 1000.0 nM
[16] = molecular target: Serine/threonine-protein kinase 35 (Homo sapiens) (UniProt Q8TDR2); conditions: Compound concentration 1000.0 nM
[17] = molecular target: Serine/threonine-protein kinase MRCK gamma (Homo sapiens) (UniProt Q6DT37); conditions: Compound concentration 1000.0 nM
[18] = system: Receptor-type tyrosine-protein kinase FLT3 (Homo sapiens), P36888 [UNDEFINED MUTATION]; conditions: Compound concentration 1000.0 nM
[19] = system: eIF-2-alpha kinase GCN2 (Homo sapiens), Q9P2K8 [S808G]; conditions: Compound concentration 1000.0 nM
Sequence of eIF-2-alpha kinase GCN2 (Homo sapiens), Q9P2K8 [S808G] (Q9P2K8 whole entry S808G): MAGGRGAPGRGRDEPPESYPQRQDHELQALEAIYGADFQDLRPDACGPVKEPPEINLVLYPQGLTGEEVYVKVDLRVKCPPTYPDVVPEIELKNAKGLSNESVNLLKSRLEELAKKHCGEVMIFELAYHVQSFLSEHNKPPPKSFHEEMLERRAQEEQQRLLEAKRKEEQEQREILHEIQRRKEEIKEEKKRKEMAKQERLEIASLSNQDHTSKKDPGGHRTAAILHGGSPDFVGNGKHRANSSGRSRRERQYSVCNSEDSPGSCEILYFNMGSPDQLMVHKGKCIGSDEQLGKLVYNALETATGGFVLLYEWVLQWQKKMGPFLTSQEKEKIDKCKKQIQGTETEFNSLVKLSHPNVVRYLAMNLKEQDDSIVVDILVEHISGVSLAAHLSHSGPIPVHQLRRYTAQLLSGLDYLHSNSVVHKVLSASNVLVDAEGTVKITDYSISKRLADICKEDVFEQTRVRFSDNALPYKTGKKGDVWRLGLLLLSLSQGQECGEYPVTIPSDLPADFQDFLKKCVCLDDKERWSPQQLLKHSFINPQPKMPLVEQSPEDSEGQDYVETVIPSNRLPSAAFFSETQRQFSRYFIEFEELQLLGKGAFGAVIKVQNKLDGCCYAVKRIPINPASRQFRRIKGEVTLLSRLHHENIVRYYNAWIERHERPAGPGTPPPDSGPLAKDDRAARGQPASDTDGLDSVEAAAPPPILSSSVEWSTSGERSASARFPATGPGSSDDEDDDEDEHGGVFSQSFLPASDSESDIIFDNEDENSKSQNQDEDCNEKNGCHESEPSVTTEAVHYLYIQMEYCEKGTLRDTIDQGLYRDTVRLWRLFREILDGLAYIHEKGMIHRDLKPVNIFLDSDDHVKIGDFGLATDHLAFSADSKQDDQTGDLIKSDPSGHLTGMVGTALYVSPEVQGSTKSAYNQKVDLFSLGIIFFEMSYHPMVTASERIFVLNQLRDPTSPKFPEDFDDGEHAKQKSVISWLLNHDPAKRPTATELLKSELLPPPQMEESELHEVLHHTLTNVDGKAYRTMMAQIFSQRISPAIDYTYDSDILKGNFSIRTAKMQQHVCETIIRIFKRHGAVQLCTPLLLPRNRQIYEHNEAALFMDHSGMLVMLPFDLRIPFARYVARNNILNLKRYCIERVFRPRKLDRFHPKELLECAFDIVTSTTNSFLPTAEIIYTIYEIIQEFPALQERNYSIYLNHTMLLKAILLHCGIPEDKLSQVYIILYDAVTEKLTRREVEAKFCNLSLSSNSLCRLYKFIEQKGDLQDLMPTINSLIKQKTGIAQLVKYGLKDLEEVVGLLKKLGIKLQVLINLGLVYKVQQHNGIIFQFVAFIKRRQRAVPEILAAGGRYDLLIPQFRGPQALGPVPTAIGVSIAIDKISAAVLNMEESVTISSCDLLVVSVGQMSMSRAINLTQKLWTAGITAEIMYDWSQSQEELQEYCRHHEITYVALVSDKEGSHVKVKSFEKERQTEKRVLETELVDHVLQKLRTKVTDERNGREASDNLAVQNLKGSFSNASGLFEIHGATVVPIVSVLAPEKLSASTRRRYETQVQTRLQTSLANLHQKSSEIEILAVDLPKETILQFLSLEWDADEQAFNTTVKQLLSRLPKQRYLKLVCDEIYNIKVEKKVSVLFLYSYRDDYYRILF

[20] = molecular target: Receptor-type tyrosine-protein kinase FLT3 (Homo sapiens) (UniProt P36888); conditions: Compound concentration 1000.0 nM
[21] = molecular target: Dual specificity tyrosine-phosphorylation-regulated kinase 2 (Homo sapiens) (UniProt Q92630); conditions: Compound concentration 1000.0 nM
[22] = molecular target: Microtubule-associated serine/threonine-protein kinase 1 (Homo sapiens) (UniProt Q9Y2H9); conditions: Compound concentration 1000.0 nM
[23] = molecular target: G protein-coupled receptor kinase 3 (Homo sapiens) (UniProt P35626); conditions: Compound concentration 1000.0 nM
[24] = molecular target: Cyclin-dependent kinase 18 (Homo sapiens) (UniProt Q07002); conditions: Compound concentration 1000.0 nM
[25] = molecular target: Phosphatidylinositol 4,5-bisphosphate 3-kinase catalytic subunit beta isoform (Homo sapiens) (UniProt P42338); conditions: Compound concentration 1000.0 nM
[26] = molecular target: Phosphatidylinositol 5-phosphate 4-kinase type-2 gamma (Homo sapiens) (UniProt Q8TBX8); conditions: Compound concentration 1000.0 nM
[27] = molecular target: Casein kinase II subunit alpha (Homo sapiens) (UniProt P68400); conditions: Compound concentration 1000.0 nM
[28] = molecular target: Homeodomain-interacting protein kinase 1 (Homo sapiens) (UniProt Q86Z02); conditions: Compound concentration 1000.0 nM
[29] = system: Phosphatidylinositol 4,5-bisphosphate 3-kinase catalytic subunit alpha isoform (Homo sapiens), P42336 [E542K]; conditions: Compound concentration 1000.0 nM
[30] = molecular target: Mitogen-activated protein kinase 15 (Homo sapiens) (UniProt Q8TD08); conditions: Compound concentration 1000.0 nM
[31] = molecular target: Activated CDC42 kinase 1 (Homo sapiens) (UniProt Q07912); conditions: Compound concentration 1000.0 nM
[32] = molecular target: Cyclin-dependent kinase 2 (Homo sapiens) (UniProt P24941); conditions: Compound concentration 1000.0 nM
[33] = molecular target: D(1A) dopamine receptor (Homo sapiens) (UniProt P21728); conditions: Compound concentration 10.0 uM
[34] = molecular target: Protein kinase C delta type (Homo sapiens) (UniProt Q05655); conditions: Compound concentration 1000.0 nM
[35] = molecular target: Calcium/calmodulin-dependent protein kinase type 1 (Homo sapiens) (UniProt Q14012); conditions: Compound concentration 1000.0 nM
[36] = molecular target: Transient receptor potential cation channel subfamily M member 6 (Homo sapiens) (UniProt Q9BX84); conditions: Compound concentration 1000.0 nM
[37] = system: Epidermal growth factor receptor (Homo sapiens), P00533 [G719S]; conditions: Compound concentration 1000.0 nM
[38] = molecular target: High affinity nerve growth factor receptor (Homo sapiens) (UniProt P04629); conditions: Compound concentration 1000.0 nM
Sequence of High affinity nerve growth factor receptor (Homo sapiens) (P04629 33-796 limits assumed): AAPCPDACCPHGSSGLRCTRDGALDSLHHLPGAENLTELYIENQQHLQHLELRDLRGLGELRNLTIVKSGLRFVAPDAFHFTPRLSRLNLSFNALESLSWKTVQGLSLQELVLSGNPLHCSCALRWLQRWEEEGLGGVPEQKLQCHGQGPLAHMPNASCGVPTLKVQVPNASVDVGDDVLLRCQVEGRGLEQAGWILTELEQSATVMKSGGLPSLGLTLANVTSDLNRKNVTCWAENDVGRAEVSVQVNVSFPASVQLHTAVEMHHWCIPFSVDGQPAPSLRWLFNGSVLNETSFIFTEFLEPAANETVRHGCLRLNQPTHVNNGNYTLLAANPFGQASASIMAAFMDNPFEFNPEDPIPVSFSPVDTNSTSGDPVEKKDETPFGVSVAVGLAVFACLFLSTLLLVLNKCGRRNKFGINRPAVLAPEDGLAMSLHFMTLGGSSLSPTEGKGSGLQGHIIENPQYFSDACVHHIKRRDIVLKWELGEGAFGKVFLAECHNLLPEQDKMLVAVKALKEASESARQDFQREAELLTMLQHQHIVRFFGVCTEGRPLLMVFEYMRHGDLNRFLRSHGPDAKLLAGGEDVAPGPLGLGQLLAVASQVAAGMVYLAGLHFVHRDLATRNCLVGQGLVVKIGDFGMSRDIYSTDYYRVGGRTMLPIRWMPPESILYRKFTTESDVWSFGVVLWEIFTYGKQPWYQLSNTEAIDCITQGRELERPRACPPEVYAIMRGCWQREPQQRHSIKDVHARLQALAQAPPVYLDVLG

[39] = molecular target: Dual specificity mitogen-activated protein kinase kinase 5 (Homo sapiens) (UniProt Q13163); conditions: Compound concentration 1000.0 nM
[40] = molecular target: Ephrin type-A receptor 1 (Homo sapiens) (UniProt P21709); conditions: Compound concentration 1000.0 nM
[41] = molecular target: Serine/threonine-protein kinase TAO3 (Homo sapiens) (UniProt Q9H2K8); conditions: Compound concentration 1000.0 nM
[42] = molecular target: Serine/threonine-protein kinase DCLK2 (Homo sapiens) (UniProt Q8N568); conditions: Compound concentration 1000.0 nM
[43] = molecular target: Serine/threonine-protein kinase 32A (Homo sapiens) (UniProt Q8WU08); conditions: Compound concentration 1000.0 nM
[44] = molecular target: Macrophage colony-stimulating factor 1 receptor (Homo sapiens) (UniProt P07333); conditions: Compound concentration 1000.0 nM
[45] = molecular target: Serine/threonine-protein kinase OSR1 (Homo sapiens) (UniProt O95747); conditions: Compound concentration 1000.0 nM
Sequence of Serine/threonine-protein kinase OSR1 (Homo sapiens) (O95747 2-527 limits assumed): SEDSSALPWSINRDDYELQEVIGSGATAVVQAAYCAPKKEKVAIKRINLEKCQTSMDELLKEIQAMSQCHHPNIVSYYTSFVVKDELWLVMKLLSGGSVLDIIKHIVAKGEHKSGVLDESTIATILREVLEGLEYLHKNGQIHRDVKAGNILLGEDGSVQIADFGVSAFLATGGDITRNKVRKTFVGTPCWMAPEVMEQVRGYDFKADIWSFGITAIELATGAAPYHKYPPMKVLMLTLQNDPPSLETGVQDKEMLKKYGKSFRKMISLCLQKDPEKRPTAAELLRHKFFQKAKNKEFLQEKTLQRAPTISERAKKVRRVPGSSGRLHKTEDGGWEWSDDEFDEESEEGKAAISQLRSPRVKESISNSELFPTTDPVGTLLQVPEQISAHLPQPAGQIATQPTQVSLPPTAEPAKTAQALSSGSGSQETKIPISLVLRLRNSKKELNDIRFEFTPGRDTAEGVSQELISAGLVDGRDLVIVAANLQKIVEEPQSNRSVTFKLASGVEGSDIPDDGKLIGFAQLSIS

Sequence of Tyrosine-protein kinase HCK (Homo sapiens) (P08631 2-526 limits assumed): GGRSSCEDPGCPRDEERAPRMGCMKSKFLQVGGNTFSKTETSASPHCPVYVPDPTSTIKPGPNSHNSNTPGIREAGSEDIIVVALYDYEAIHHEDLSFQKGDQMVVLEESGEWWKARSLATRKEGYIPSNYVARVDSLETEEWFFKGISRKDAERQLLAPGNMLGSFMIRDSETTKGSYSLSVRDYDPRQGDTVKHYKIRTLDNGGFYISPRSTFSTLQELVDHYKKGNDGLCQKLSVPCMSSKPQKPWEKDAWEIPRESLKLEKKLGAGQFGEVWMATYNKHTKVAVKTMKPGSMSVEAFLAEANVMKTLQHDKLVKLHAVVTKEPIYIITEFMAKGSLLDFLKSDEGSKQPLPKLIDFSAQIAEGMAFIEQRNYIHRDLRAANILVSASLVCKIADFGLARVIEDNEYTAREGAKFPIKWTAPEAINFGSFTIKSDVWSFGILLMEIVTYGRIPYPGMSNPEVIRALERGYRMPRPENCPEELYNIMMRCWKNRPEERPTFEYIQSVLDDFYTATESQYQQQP

SMILES: C[C@@H](c1cccc(C#N)c1)n1cc(Cl)cc(C(N)=O)c1=N [(S)-9s]
- residual activity [1]: 91%
- inhibition [2]: 16.1%
- residual activity [3]: 100%
- residual activity [4]: 89%
- residual activity [5]: 93%
- residual activity [6]: 100%
- residual activity [7]: 100%
- residual activity [8]: 100%
- residual activity [9]: 90%
- residual activity [10]: 92%
- residual activity [11]: 100%
- residual activity [12]: 100%
- residual activity [13]: 100%
- residual activity [14]: 100%
- residual activity [15]: 97%
- residual activity [16]: 100%
- residual activity [17]: 100%
- residual activity [18]: 85%
- residual activity [19]: 50%
- residual activity [20]: 100%
- residual activity [21]: 98%
- residual activity [22]: 100%
- residual activity [23]: 81%
- residual activity [24]: 100%
- residual activity [25]: 93%
- residual activity [26]: 85%
- residual activity [27]: 72%
- residual activity [28]: 79%
- residual activity [29]: 89%
- residual activity [30]: 100%
- residual activity [31]: 95%
- residual activity [32]: 100%
- inhibition [33]: -6.15%
- residual activity [34]: 77%
- residual activity [35]: 100%
- residual activity [36]: 71%
- residual activity [37]: 100%
- residual activity [38]: 100%
- residual activity [39]: 88%
- residual activity [40]: 77%
- residual activity [41]: 75%
- residual activity [42]: 90%
- residual activity [43]: 100%
- residual activity [44]: 96%
- residual activity [45]: 93%

SMILES: C[C@H](c1cccc(C#N)c1)n1cc(Cl)cc(C(N)=O)c1=N [(R)-9s]
- residual activity [1]: 98%
- inhibition [2]: 10.7%
- residual activity [3]: 100%
- residual activity [4]: 84%
- residual activity [5]: 75%
- residual activity [6]: 99%
- residual activity [7]: 100%
- residual activity [8]: 100%
- residual activity [9]: 65%
- residual activity [10]: 100%
- residual activity [11]: 100%
- residual activity [12]: 91%
- residual activity [13]: 100%
- residual activity [14]: 100%
- residual activity [15]: 92%
- residual activity [16]: 88%
- residual activity [17]: 77%
- residual activity [18]: 82%
- residual activity [19]: 45%
- residual activity [20]: 95%
- residual activity [21]: 84%
- residual activity [22]: 96%
- residual activity [23]: 76%
- residual activity [24]: 100%
- residual activity [25]: 94%
- residual activity [26]: 100%
- residual activity [27]: 67%
- residual activity [28]: 83%
- residual activity [29]: 77%
- residual activity [30]: 100%
- residual activity [31]: 83%
- residual activity [32]: 100%
- inhibition [33]: 1.16%
- residual activity [34]: 91%
- residual activity [35]: 100%
- residual activity [36]: 83%
- residual activity [37]: 100%
- residual activity [38]: 100%
- residual activity [39]: 100%
- residual activity [40]: 97%
- residual activity [41]: 67%
- residual activity [42]: 88%
- residual activity [43]: 100%
- residual activity [44]: 100%
- residual activity [45]: 81%
